| melting point [°C] | SMILES |
| --- | --- |
| 132 | O=C(O)C1(C(=O)O)CC1 [1,1-cyclopropanedicarboxylic acid] |
| 211 | O=C(O)COc1cccnc1 [3-pyridyloxyacetic acid] |
| 117 | Nc1ccc2ncccc2c1 [6-aminoquinoline] |
| 375 | O=C(O)c1cc(C(=O)O)cc(C(=O)O)c1 [1,3,5-benzenetricarboxylic acid] |
| 234 | O=C(O)c1ccc([N+](=O)[O-])c(O)c1 [3-hydroxy-4-nitrobenzoic acid] |
| 188 | OC[C@H]1O[C@@](CO)(O[C@H]2O[C@H](CO)[C@@H](O)[C@H](O)[C@H]2O)[C@@H](O)[C@@H]1O [sucrose] |
| 43 | O=C(CC(=O)C(F)(F)F)c1cccs1 [1-(2-thenoyl)-3,3,3-trifluoroacetone] |
| 95 | ClCC(CCl)(CCl)CCl [pentaerythrityl tetrachloride] |

More lines, now with the values behind:

| SMILES | melting point [°C] |
| --- | --- |
| O=[N+]([O-])c1cc[n+]([O-])cc1 [4-nitropyridine n-oxide] | 161 |
| Oc1ccccc1C=NCCCN=Cc1ccccc1O [N,N'-bis(salicylidene)-1,3-propanediamine] | 52 |
| CC(C)Cc1ccc(C(C)C(=O)O)cc1 (centres undefined) [Ibuprofen] | 76 |
| ClC1CCCCC1 [chlorocyclohexane] | -44 |
| CCCCCCCCCCCCCC [tetradecane] | 6 |
| O=C(N[C@@H](Cc1ccccc1)C(=O)O)OCc1ccccc1 [N-benzyloxycarbonyl-l-phenylalanine] | 86 |
| c1ccc2c(c1)Cc1ccccc1-2 [fluorene] | 116 |
| O=C(CBr)c1ccc2ccccc2c1 [2-(bromoacetyl)naphthalene] | 83 |
| CCCCCCCl [1-Chlorohexane] | -94 |
| Oc1c(F)cc(F)cc1F [2,4,6-trifluorophenol] | 50 |
| CC1CC1 [cyclopropylmethane] | -177 |
